Experimental data: US20050106563A1 (Genesis Biotech Inc., priority 2003, published 2005)
Where no end group is shown, it is not given here.

Columns and labels:
[1] = system: anti-SARS-CoV antibody in human sera; format: binding
anti-SARS-CoV sera IgG = format: binding, human
[2] = system: IgM specific to SARS-COV N1; format: binding, human
[3] = system: chicken anti-avian infectious bronchitis virus (IBV) sera; format: binding
[4] = system: cat anti-feline coronavirus sera; format: binding

Substance: (RNPNNNAATV)8K4K2K-βA (also: octameric MAP: 8 copies on K4K2K lysine core with C-terminal βAla) [GA152]
- Responder (AT>1, positive)/Total samples (R/T) [1]: 10/10
- Responder/Total samples (R/T) value [1]: 0
- share of group 2 regarded as probable SARS patients (17 of 23 cases) [1]: 74%
- detection of SARS-COV antibody (IgG) in patient #51 (anti-SARS-CoV sera IgG): can be detected
- time dependency of antibody binding (time dependent epitopes) (anti-SARS-CoV sera IgG): immediate early (days 1-6)
- detection of SARS-COV antibody (IgM) in patient #51 [2]: can be detected
- cross reaction with chicken anti-IBV antiserum [3]: did not cross react
- response ratio R/T [4]: 0/8
